Assay results: US8350079B2, “Treprostinil formulation” (United Therapeutics Corporation, priority 2008, dated 2013)

Assay: Extended room temperature storage of treprostinil monohydrate lot D-1007-089 (18-month stability summary: water content, assay/impurity profile)
Format: physicochemical
Settings: for TREPROSTINIL Assay: in % (unit assumed)
Description: 2. UT Stability Summary (18-month) for monohydrate lot # D-1007-089
A 3.4-kg sample of treprostinil diethanolamine salt was dissolved in 36 L of sterile water, 60 L of ethyl acetate and 3.6 L of 3 M HCl were added and the mixture stirred. The layers were separated and the aqueous layer was extracted thrice with 20-L portions of ethyl acetate. The four organic layers were combined, the organic solution washed twice with 20-L portions of sterile water, once with 20 L of brine and dried over 2.86 kg of anhydrous sodium sulfate. The mixture was filtered and the filtrate was concentrated to yield treprostinil as a gummy solid. This solid was transferred to glass drying trays and let air-dry for 66 hours. This solid was then dissolved in 23.8 kg of ethanol, warmed to 48° C. and treated with 23.8 kg of warm (40-50° C.) sterile water. The solution was stirred and then stirring was stopped to allow the treprostinil to slowly crystallize. The resulting white solid was collected by filtration in an Aurora filter, washed with 45 L of a cold (6° C.) 20% ethanol in sterile water solution, the filter moved to a Hepa-filtered Finishing Room and the solid dried under house vacuum for 23 hours. The solid was transferred to glass drying trays and further air-dried for 115 hours until the total weight of the material was constant (no further solvent loss). A sample of this treprostinil monohydrate was taken as Lot #D-1007-089 for stability studies. The remaining material was further dried in a vacuum oven at 55° C. and 1.66 Torr for 10 hours to give 2.68 kg (96.4%) of anhydrous treprostinil (Lot #01G07018).
One of the stability studies has followed the monohydrate of TREPROSTINIL stored in an open container.

[1] = 1 Month, Container 1 (closed), room temperature
[2] = 1 Month, Container 2 (covered with Kimwipe), room temperature
[3] = 2 Months, Container 1 (closed), room temperature
[4] = 2 Months, Container 2 (covered with Kimwipe), room temperature
[5] = 3 Months, Container 1 (closed), room temperature
[6] = 3 Months, Container 2 (covered with Kimwipe), room temperature
[7] = 6 Months, Container 1 (closed), room temperature
[8] = 6 Months, Container 2 (covered with Kimwipe), room temperature
[9] = 12 Months, Container 1 (closed), room temperature
[10] = 12 Months, Container 2 (covered with Kimwipe), room temperature
[11] = 18 Month, Container 1 (closed), room temperature
[12] = 18 Month, Container 2 (covered with Kimwipe), room temperature
[13] = Initial, Container 1 (closed), room temperature
[14] = Initial, Container 2 (covered with Kimwipe), room temperature

In the case of `CCCCC[C@H](O)CC[C@@H]1[C@H]2Cc3cccc(OCC(=O)O)c3C[C@H]2C[C@H]1O` [TREPROSTINIL Lot# D-1007-089, treprostinil monohydrate], the 750W93 [1] is reported as 0.09%, the 751W93 [1] is reported as 0.04% and the “Impurity 1” value [1] is reported as 0.05. The “Impurity 2” value [1] was 0.05, the TREPROSTINIL Ethyl Ester [1] was 0.2% and the Total impurities [1] was 0.5%. The “TREPROSTINIL Assay” value [1] was 100.1, the 750W93 [2] was 0.09% and the 751W93 [2] was 0.04%. The “Impurity 1” value [2] was 0.05, the “Impurity 2” value [2] was 0.05 and the TREPROSTINIL Ethyl Ester [2] was 0.2%. The Total impurities [2] was 0.5%, the “TREPROSTINIL Assay” value [2] was 100.4 and the 750W93 [3] was 0.09%. The 751W93 [3] was 0.04%, the “Impurity 1” value [3] was 0.05 and the “Impurity 2” value [3] was 0.05. The TREPROSTINIL Ethyl Ester [3] was 0.2%, the Total impurities [3] was 0.5% and the “Water, KF” value [3] was 4.46%. For the same compound, the “TREPROSTINIL Assay” value [3] was 99.5, the 750W93 [4] was 0.09% and the 751W93 [4] was 0.04%. The “Impurity 1” value [4] was 0.05, the “Impurity 2” value [4] was 0.05 and the TREPROSTINIL Ethyl Ester [4] was 0.2%. The Total impurities [4] was 0.5%, the “Water, KF” value [4] was 4.47% and the “TREPROSTINIL Assay” value [4] was 99.6. For the same compound, the 750W93 [5] was 0.09%, the 751W93 [5] was 0.04% and the “Impurity 1” value [5] was 0.06. The “Impurity 2” value [5] was less than 0.05, the TREPROSTINIL Ethyl Ester [5] was 0.2% and the Total impurities [5] was 0.5%. For the same compound, the “Water, KF” value [5] was 4.51%, the “TREPROSTINIL Assay” value [5] was 98.1 and the 750W93 [6] was 0.09%. For the same compound, the 751W93 [6] was 0.04%, the “Impurity 1” value [6] was 0.06 and the “Impurity 2” value [6] was less than 0.05. The TREPROSTINIL Ethyl Ester [6] was 0.2%, the Total impurities [6] was 0.5% and the “Water, KF” value [6] was 4.48%. For the same compound, the “TREPROSTINIL Assay” value [6] was 98.6, the 750W93 [7] was 0.1% and the 751W93 [7] was 0.04%. The “Impurity 1” value [7] was less than 0.05, the “Impurity 2” value [7] was less than 0.05 and the TREPROSTINIL Ethyl Ester [7] was 0.2%. The Total impurities [7] was 0.6%, the “Water, KF” value [7] was 4.59% and the “TREPROSTINIL Assay” value [7] was 99.4. For the same compound, the 750W93 [8] was 0.09%, the 751W93 [8] was 0.04% and the “Impurity 1” value [8] was less than 0.05. The “Impurity 2” value [8] was less than 0.05, the TREPROSTINIL Ethyl Ester [8] was 0.2% and the Total impurities [8] was 0.6%. For the same compound, the “Water, KF” value [8] was 4.72%, the “TREPROSTINIL Assay” value [8] was 99.3 and the 750W93 [9] was 0.09%. The 751W93 [9] was less than 0.05%, the “Impurity 1” value [9] was 0.06 and the “Impurity 2” value [9] was 0.05. For the same compound, the TREPROSTINIL Ethyl Ester [9] was 0.2%, the Total impurities [9] was 0.5% and the “Water, KF” value [9] was 4.72%. The “TREPROSTINIL Assay” value [9] was 100.1, the 750W93 [10] was 0.09% and the 751W93 [10] was less than 0.05%. The “Impurity 1” value [10] was 0.06, the “Impurity 2” value [10] was 0.05 and the TREPROSTINIL Ethyl Ester [10] was 0.2%. For the same compound, the Total impurities [10] was 0.05%, the “Water, KF” value [10] was 4.73% and the “TREPROSTINIL Assay” value [10] was 100.3. For the same compound, the 750W93 [11] was 0.09%, the 751W93 [11] was less than 0.05% and the “Impurity 1” value [11] was less than 0.05. The “Impurity 2” value [11] was 0.05, the TREPROSTINIL Ethyl Ester [11] was 0.2% and the Total impurities [11] was 0.05%. For the same compound, the “Water, KF” value [11] was 4.67%, the “TREPROSTINIL Assay” value [11] was 100.3 and the 750W93 [12] was 0.09%. For the same compound, the 751W93 [12] was less than 0.05%, the “Impurity 1” value [12] was less than 0.05 and the “Impurity 2” value [12] was 0.05. For the same compound, the TREPROSTINIL Ethyl Ester [12] was 0.2%, the Total impurities [12] was 0.05% and the “Water, KF” value [12] was 4.72%. For the same compound, the “TREPROSTINIL Assay” value [12] was 99.8, the 750W93 [13] was 0.1% and the 751W93 [13] was 0.04%. The “Impurity 1” value [13] was 0.06, the “Impurity 2” value [13] was 0.05 and the TREPROSTINIL Ethyl Ester [13] was 0.2%. The Total impurities [13] was 0.5%, the “Water, KF” value [13] was 4.55% and the “TREPROSTINIL Assay” value [13] was 99.6. For the same compound, the 750W93 [14] was 0.1%, the 751W93 [14] was 0.04% and the “Impurity 1” value [14] was 0.05. For the same compound, the “Impurity 2” value [14] was less than 0.05, the TREPROSTINIL Ethyl Ester [14] was 0.2% and the Total impurities [14] was 0.5%. For the same compound, the “Water, KF” value [14] was 4.37%, the “TREPROSTINIL Assay” value [14] was 99.5 and the “Retention of the one mole of water in the solid” value (open container, over 18-months) was “has not disappeared”. The “Stability compared with the anhydrous form” value (room temperature, e.g. 25° C. / ambient temperatures) was “more stable than the anhydrous form”.
